Data reported in patent US10106556B2, “Heterocyclic compound” (TAKEDA PHARMACEUTICAL COMPANY LIMITED, priority 2015, dated 2018).

Target: T1, His-hMAGL (recombinant polyhistidine tagged human MAGL protein) (Homo sapiens, UniProt Q99685)
T1 construct: made in house; host or cells: E. coli BL21(DE3)
T1 sequence (Q99685 1-303): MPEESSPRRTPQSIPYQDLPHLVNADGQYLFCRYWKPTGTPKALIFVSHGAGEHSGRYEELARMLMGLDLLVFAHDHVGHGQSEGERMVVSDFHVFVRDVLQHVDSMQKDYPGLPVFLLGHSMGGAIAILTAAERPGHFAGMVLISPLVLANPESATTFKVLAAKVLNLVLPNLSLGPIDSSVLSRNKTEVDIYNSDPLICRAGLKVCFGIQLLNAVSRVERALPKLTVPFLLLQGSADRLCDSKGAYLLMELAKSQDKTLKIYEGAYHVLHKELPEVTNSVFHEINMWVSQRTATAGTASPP
Test: Measurement of MAGL inhibitory activity (arachidonic acid production from 2-arachidonylglycerol, RapidFire-mass spectrometry)
Format: biochemical
Conditions: MAGL inhibitory rate at 10 μM test compound; 60 min preincubation with His-hMAGL, 2-arachidonylglycerol substrate, 10 min reaction at room temperature
Outline: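 Inhibition (%) was derived from arachidonic acid levels relative to enzyme-free and compound-free groups. Product was measured by online C4 solid-phase extraction and triple-quadrupole MS in negative SRM mode, corrected by arachidonic acid-d8 (3 μM in the acetonitrile added). Substrate was 2-arachidonylglycerol; enzyme was His-tagged recombinant human MAGL.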

SMILES	inhibition at 10 µM [%]
O=C1Cc2ccc(C(=O)N3CCC(COc4ccccc4Cl)CC3)cc2N1 [Example 28]	100
N#Cc1cc(C(F)(F)F)ccc1OCC1CCN(C(=O)c2cc3c(cc2F)OCC(=O)N3)CC1 [Example 68, 2-((1-((7-fluoro-3-oxo-3,4-dihydro-2H-1,4-benzoxazin-6-yl)carbonyl)piperidin-4-yl)methoxy)-5-(trifluoromethyl)benzonitrile]	96
Cc1cc2c(cc1C(=O)N1CC(COc3ccc(F)cc3Cl)C1)NC(=O)CO2 [Example 88, 6-((3-((2-chloro-4-fluorophenoxy)methyl)azetidin-1-yl)carbonyl)-7-methyl-2H-1,4-benzoxazin-3 (4H)-one]	96
O=C1COc2cc(F)c(C(=O)N3CC(COc4ccc(OCC(F)(F)F)cc4)C3)cc2N1 [Example 114, 7-fluoro-6-((3-((4-(2,2,2-trifluoroethoxy)phenoxy)methyl)azetidin-1-yl)carbonyl)-2H-1,4-benzoxazin-3(4H)-one]	99
O=C1COc2cc(F)c(C(=O)N3CC(COc4ccc5cn[nH]c5c4)C3)cc2N1 [Example 157, 7-fluoro-6-((3-((1H-indazol-6-yloxy)methyl)azetidin-1-yl)carbonyl)-2H-1,4-benzoxazin-3(4H)-one]	100
Cc1cccc(OCC2CN(C(=O)c3cc4c(cc3F)OCC(=O)N4)C2)c1 [Example 162, 7-fluoro-6-((3-((3-methylphenoxy)methyl)azetidin-1-yl)carbonyl)-2H-1,4-benzoxazin-3(4H)-one]	102
COc1cc(F)ccc1OCC1CN(C(=O)c2cc3c(cc2F)OCC(=O)N3)C1 [Example 121, 7-fluoro-6-((3-((4-fluoro-2-methoxyphenoxy)methyl)azetidin-1-yl)carbonyl)-2H-1,4-benzoxazin-3(4H)-one]	99
Cc1cc(F)ccc1OCC1CN(C(=O)c2cc3c(cc2F)OCC(=O)N3)C1 [Example 120, 7-fluoro-6-((3-((4-fluoro-2-methylphenoxy)methyl)azetidin-1-yl)carbonyl)-2H-1,4-benzoxazin-3(4H)-one]	101
O=C1COc2cc(F)c(C(=O)N3CC(COc4cc(F)ccc4Cl)C3)cc2N1 [Example 132, 6-((3-((2-chloro-5-fluorophenoxy)methyl)azetidin-1-yl)carbonyl)-7-fluoro-2H-1,4-benzoxazin-3(4H)-one]	99
O=C1COc2cc(F)c(C(=O)N3CC(COc4ccc5c(c4)CCC5)C3)cc2N1 [Example 154, 6-((3-((2,3-dihydro-1H-inden-5-yloxy)methyl)azetidin-1-yl)carbonyl)-7-fluoro-2H-1,4-benzoxazin-3(4H)-one]	95
O=C1COc2cc(F)c(C(=O)N3CC(COc4c(Cl)cccc4Cl)C3)cc2N1 [Example 122, 6-((3-((2,6-dichlorophenoxy)methyl)azetidin-1-yl)carbonyl)-7-fluoro-2H-1,4-benzoxazin-3(4H)-one]	102
O=C1COc2c(F)cc(C(=O)N3CCC(COc4ccc(F)cc4Cl)CC3)cc2N1 [Example 32, 6-((4-((2-chloro-4-fluorophenoxy)methyl)piperidin-1-yl)carbonyl)-8-fluoro-2H-1,4-benzoxazin-3(4H)-one]	99
O=C1COc2cc(F)c(C(=O)N3CC(COc4ccc5c(c4)CCCC5)C3)cc2N1 [Example 102, 7-fluoro-6-((3-((5,6,7,8-tetrahydronaphthalen-2-yloxy)methyl)azetidin-1-yl)carbonyl)-2H-1,4-benzoxazin-3(4H)-one]	102

Results, then the compound that gave them:

inhibition at 10 µM [%]	SMILES
101	O=C1COc2cc(F)c(C(=O)N3CC(COc4ccc(Cl)cc4-c4ccncc4F)C3)cc2N1 [Example 209, 6-((3-((4-chloro-2-(3-fluoropyridin-4-yl)phenoxy)methyl)azetidin-1-yl)carbonyl)-7-fluoro-2H-1,4-benzoxazin-3(4H)-one]
102	Cc1ccc(-c2cc(Cl)ccc2OCC2CN(C(=O)c3cc4c(cc3F)OCC(=O)N4)C2)cn1 [Example 190, 6-((3-((4-chloro-2-(6-methylpyridin-3-yl)phenoxy)methyl)azetidin-1-yl)carbonyl)-7-fluoro-2H-1,4-benzoxazin-3(4H)-one]
101	Cc1nn(C)c(C)c1-c1cc(Cl)ccc1OCC1CN(C(=O)c2cc3c(cc2F)OCC(=O)N3)C1 [Example 267, 6-((3-((4-chloro-2-(1,3,5-trimethyl-1H-pyrazol-4-yl)phenoxy)methyl)azetidin-1-yl)carbonyl)-7-fluoro-2H-1,4-benzoxazin-3(4H)-one]
101	N#Cc1ccccc1COC1CN(C(=O)c2cc3c(cc2F)OCC(=O)N3)C1 [Example 333, 2-(((1-((7-fluoro-3-oxo-3,4-dihydro-2H-1,4-benzoxazin-6-yl)carbonyl)azetidin-3-yl)oxy)methyl) benzonitrile]
101	Cc1nc(C)c(-c2cc(Cl)ccc2OCC2CN(C(=O)c3cc4c(cc3F)OCC(=O)N4)C2)s1 [Example 268, 6-((3-((4-chloro-2-(2,4-dimethyl-1,3-thiazol-5-yl)phenoxy)methyl)azetidin-1-yl)carbonyl)-7-fluoro-2H-1,4-benzoxazin-3(4H)-one]
99	Cc1cncc(-c2ccc(OCC3CN(C(=O)c4cc5c(cc4F)OCC(=O)N5)C3)c(F)c2)c1 [Example 236, 7-fluoro-6-((3-((2-fluoro-4-(5-methylpyridin-3-yl)phenoxy)methyl)azetidin-1-yl)carbonyl)-2H-1,4-benzoxazin-3(4H)-one]
102	Cc1cc(-c2cc(Cl)ccc2OCC2CN(C(=O)c3cc4c(cc3F)OCC(=O)N4)C2)ccn1 [Example 193, 6-((3-((4-chloro-2-(2-methylpyridin-4-yl)phenoxy)methyl)azetidin-1-yl)carbonyl)-7-fluoro-2H-1,4-benzoxazin-3(4H)-one]
98	N#Cc1cccc(COC2CN(C(=O)c3cc4c(cc3F)OCC(=O)N4)C2)c1 [Example 334, 3-(((1-((7-fluoro-3-oxo-3,4-dihydro-2H-1,4-benzoxazin-6-yl)carbonyl)azetidin-3-yl)oxy)methyl) benzonitrile]
96	O=C1COc2cc(F)c(C(=O)N3CC(COc4ccc(-c5cnn(C(F)F)c5)cc4F)C3)cc2N1 [Example 247, 6-((3-((4-(1-(difluoromethyl)-1H-pyrazol-4-yl)-2-fluorophenoxy)methyl)azetidin-1-yl)carbonyl)-7-fluoro-2H-1,4-benzoxazin-3(4H)-one]
91	Cc1nccc(-c2ccccn2)c1OCC1CN(C(=O)c2cc3c(cc2F)OCC(=O)N3)C1 [Example 177, 7-fluoro-6-((3-(((2′-methyl-2,4′-bipyridin-3′-yl)oxy)methyl)azetidin-1-yl)carbonyl)-2H-1,4-benzoxazin-3(4H)-one]
102	O=C1COc2cc(F)c(C(=O)N3CC(COc4ccc(Cl)cc4-c4ccc(C(F)(F)F)nc4)C3)cc2N1 [Example 220, 6-((3-((4-chloro-2-(6-(trifluoromethyl)pyridin-3-yl)phenoxy)methyl)azetidin-1-yl)carbonyl)-7-fluoro-2H-1,4-benzoxazin-3(4H)-one]
100	O=C1COc2cc(F)c(C(=O)N3CC(COc4ccc(Cl)cc4-c4ccnc(F)c4)C3)cc2N1 [Example 207, 6-((3-((4-chloro-2-(2-fluoropyridin-4-yl)phenoxy)methyl)azetidin-1-yl)carbonyl)-7-fluoro-2H-1,4-benzoxazin-3(4H)-one]
101	O=C1COc2cc(F)c(C(=O)N3CC(COc4ccc(-c5ccnc(Cl)c5)cc4F)C3)cc2N1 [Example 241, 6-((3-((4-(2-chloropyridin-4-yl)-2-fluorophenoxy)methyl)azetidin-1-yl)carbonyl)-7-fluoro-2H-1,4-benzoxazin-3(4H)-one]
100	O=C1COc2cc(F)c(C(=O)N3CC(COc4ccc(-c5ccncc5)cc4F)C3)cc2N1 [Example 239, 7-fluoro-6-((3-((2-fluoro-4-(pyridin-4-yl)phenoxy)methyl)azetidin-1-yl)carbonyl)-2H-1,4-benzoxazin-3(4H)-one]
102	O=C1COc2cc(F)c(C(=O)N3CC(CC(F)(F)c4ccc(F)cc4Cl)C3)cc2N1 [Example 356, 6-((3-(2-(2-chloro-4-fluorophenyl)-2,2-difluoroethyl)azetidin-1-yl)carbonyl)-7-fluoro-2H-1,4-benzoxazin-3(4H)-one]
101	O=C1COc2cc(F)c(C(=O)N3CC(COc4ccc(Cl)cc4-c4cncc(Cl)c4)C3)cc2N1 [Example 201, 6-((3-((4-chloro-2-(5-chloropyridin-3-yl)phenoxy)methyl)azetidin-1-yl)carbonyl)-7-fluoro-2H-1,4-benzoxazin-3(4H)-one]
99	O=C1COc2cc(F)c(C(=O)N3CC(COc4ccc(Cl)cc4-c4cnn(C5CC5)c4)C3)cc2N1 [Example 215, 6-((3-((4-chloro-2-(1-cyclopropyl-1H-pyrazol-4-yl)phenoxy)methyl)azetidin-1-yl)carbonyl)-7-fluoro-2H-1,4-benzoxazin-3(4H)-one]
100	O=C1COc2cc(F)c(C(=O)N3CC(COc4ccc(Cl)cc4Br)C3)cc2N1 [Example 185, 6-((3-((2-bromo-4-chlorophenoxy)methyl)azetidin-1-yl)carbonyl)-7-fluoro-2H-1,4-benzoxazin-3(4H)-one]
